Reference: patent US20220323383A1, “SMALL-MOLECULAR ADJUVANTS AND IMPLEMENTATIONS THEREOF” (JAWAHARLAL NEHRU CENTRE FOR ADVANCED SCIENTIFIC RESEARCH, priority 2019, published 2022)
Structures can show the parent of a compound that is named as a salt.

Columns and labels:
Assay type in all cases: cell-based
A. baumannii R674 [1] = test: Bactericidal time-kill kinetics; conditions: combination of rifampicin and Compound 13 (4 μg/mL+2 μg/mL and 8 μg/mL+2 μg/mL)
Procedure: (§1) Briefly, A. baumannii R674 and P. aeruginosa R590 were grown in nutrient broth at 37° C. for 6 h. Combinations of Compound 13 and rifampicin (4 μg/mL+2 μg/mL and 8 μg/mL+2 μg/mL) and rifampicin alone (32 μg/mL) were inoculated with aliquots of A. baumannii R674 suspended in fresh media at ˜1.8×10^5 CFU/mL. Similarly, combination of […] and fusidic acid (8 μg/mL+1 μg/mL), Compound 15 (128 μg/mL) and fusidic acid (16 μg/mL) were inoculated with aliquots of P. aeruginosa R590 suspended in fresh media at ˜1.8×10^5 CFU/mL. After specified time intervals (0, 1, 2, 4, 6 and 12 h), 20 μL aliquots were serially diluted 10-fold in 0.9% saline, plated on sterile MacConkey agar plates and incubated at 37° C. overnight. The viable colonies were counted the next day and represented as logio (CFU/mL) (FIG. 1). Combination of rifampicin and Compound 13 could completely kill the bacteria in 2 h and combination of fusidic acid and Compound 14 could kill bacteria in 12 h.

P. aeruginosa R590 [2] = test: Chequerboard combination efficacy of adjuvant with antibiotics; conditions: P. aeruginosa R590
How it was run: (§2)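 Two-fold chequerboard broth microdilution of adjuvant plus antibiotic; 6 h cultures in peptone diluted to ~10^5 cfu/mL, incubated 24 h at 37 °C, 150 rpm, OD600 read. Wells matching media control define inhibitory concentrations; FIC index (FICantibiotic+FICadjuvant) and potentiation factor (MIC alone/MIC with adjuvant) calculated.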

A. baumannii R674 [3] = test: as above
How it was run: as §2

P. aeruginosa R590 [4] = test: Bactericidal time-kill kinetics; conditions: combination with fusidic acid (8 μg/mL+1 μg/mL)
Procedure: as §1

NCCCC[C@H](N)C(=O)NCCCCCCN(CCCCCCNC(=O)[C@@H](N)CCCCN)C(=O)Cc1cccc2ccccc12 [Compound 13, N,N-bis-[(6-(^LLys)amido)hexyl] naphthyl ethanamide tetrakistrifluoroacetate]
Time to completely kill the bacteria (A. baumannii R674 [1]): 2 h | FICI (P. aeruginosa R590 [2]; antibiotic Chloramphenicol): 0.375 | MIC of antibiotic in presence of adjuvant (P. aeruginosa R590 [2]; antibiotic Chloramphenicol): 32 mg/L | Potentiation factor (P. aeruginosa R590 [2]; antibiotic Chloramphenicol): 4 | MIC of antibiotic in presence of adjuvant (P. aeruginosa R590 [2]; antibiotic Colistin): No potentiation | MIC of antibiotic in presence of adjuvant (P. aeruginosa R590 [2]; antibiotic Daptomycin): No potentiation | FICI (P. aeruginosa R590 [2]; antibiotic Fusidic acid): 0.094 | MIC of antibiotic in presence of adjuvant (P. aeruginosa R590 [2]; antibiotic Fusidic acid): 2 mg/L | Potentiation factor (P. aeruginosa R590 [2]; antibiotic Fusidic acid): 32 | FICI (P. aeruginosa R590 [2]; antibiotic Linezolid): 0.1875 | MIC of antibiotic in presence of adjuvant (P. aeruginosa R590 [2]; antibiotic Linezolid): 32 mg/L | Potentiation factor (P. aeruginosa R590 [2]; antibiotic Linezolid): 8 | FICI (P. aeruginosa R590 [2]; antibiotic Minocycline): 0.1875 | MIC of antibiotic in presence of adjuvant (P. aeruginosa R590 [2]; antibiotic Minocycline): 0.5 mg/L | Potentiation factor (P. aeruginosa R590 [2]; antibiotic Minocycline): 16 | FICI (P. aeruginosa R590 [2]; antibiotic Rifampicin): <0.019 | MIC of antibiotic in presence of adjuvant (P. aeruginosa R590 [2]; antibiotic Rifampicin): <0.5 mg/L | Potentiation factor (P. aeruginosa R590 [2]; antibiotic Rifampicin): >256 | FICI (P. aeruginosa R590 [2]; antibiotic Tetracycline): 0.266 | MIC of antibiotic in presence of adjuvant (P. aeruginosa R590 [2]; antibiotic Tetracycline): 4 mg/L | Potentiation factor (P. aeruginosa R590 [2]; antibiotic Tetracycline): 64 | MIC of antibiotic in presence of adjuvant (A. baumannii R674 [3]; antibiotic Ampicillin): No potentiation | FICI (A. baumannii R674 [3]; antibiotic Ciprofloxacin): 0.3125 | MIC of antibiotic in presence of adjuvant (A. baumannii R674 [3]; antibiotic Ciprofloxacin): 64 mg/L | Potentiation factor (A. baumannii R674 [3]; antibiotic Ciprofloxacin): 4 | FICI (A. baumannii R674 [3]; antibiotic Erythromycin): 0.156 | MIC of antibiotic in presence of adjuvant (A. baumannii R674 [3]; antibiotic Erythromycin): 16 mg/L | Potentiation factor (A. baumannii R674 [3]; antibiotic Erythromycin): 32 | FICI (A. baumannii R674 [3]; antibiotic Fusidic acid): <0.023 | MIC of antibiotic in presence of adjuvant (A. baumannii R674 [3]; antibiotic Fusidic acid): <0.5 mg/L | Potentiation factor (A. baumannii R674 [3]; antibiotic Fusidic acid): >128 | FICI (A. baumannii R674 [3]; antibiotic Linezolid): 0.1875 | MIC of antibiotic in presence of adjuvant (A. baumannii R674 [3]; antibiotic Linezolid): 32 mg/L | Potentiation factor (A. baumannii R674 [3]; antibiotic Linezolid): 8 | FICI (A. baumannii R674 [3]; antibiotic Minocycline): 0.1875 | MIC of antibiotic in presence of adjuvant (A. baumannii R674 [3]; antibiotic Minocycline): 0.5 mg/L | Potentiation factor (A. baumannii R674 [3]; antibiotic Minocycline): 16 | FICI (A. baumannii R674 [3]; antibiotic Rifampicin): 0.023 | MIC of antibiotic in presence of adjuvant (A. baumannii R674 [3]; antibiotic Rifampicin): 1 mg/L | Potentiation factor (A. baumannii R674 [3]; antibiotic Rifampicin): 64 | MIC of antibiotic in presence of adjuvant (A. baumannii R674 [3]; antibiotic Streptomycin): No potentiation | FICI (A. baumannii R674 [3]; antibiotic Tetracycline): 0.375 | MIC of antibiotic in presence of adjuvant (A. baumannii R674 [3]; antibiotic Tetracycline): 16 mg/L | Potentiation factor (A. baumannii R674 [3]; antibiotic Tetracycline): 8 | FICI (A. baumannii R674 [3]; antibiotic Vancomycin): 0.5625 | MIC of antibiotic in presence of adjuvant (A. baumannii R674 [3]; antibiotic Vancomycin): 32 mg/L | Potentiation factor (A. baumannii R674 [3]; antibiotic Vancomycin): 2

NCCCC[C@H](N)C(=O)NCCCCCCN(CCCCCCNC(=O)[C@@H](N)CCCCN)C(=O)CC(c1ccccc1)c1ccccc1 [Compound 14, N,N-bis-[(6-(^LLys)amido)hexyl] 3,3-diphenyl propanamide tetrakis trifluoroacetate]
Time to kill bacteria (P. aeruginosa R590 [4]): 12 h | FICI (P. aeruginosa R590 [2]; antibiotic Chloramphenicol): <0.3125 | MIC of antibiotic in presence of adjuvant (P. aeruginosa R590 [2]; antibiotic Chloramphenicol): 32 mg/L | Potentiation factor (P. aeruginosa R590 [2]; antibiotic Chloramphenicol): 4 | FICI (P. aeruginosa R590 [2]; antibiotic Colistin): <0.266 | MIC of antibiotic in presence of adjuvant (P. aeruginosa R590 [2]; antibiotic Colistin): 0.25 mg/L | Potentiation factor (P. aeruginosa R590 [2]; antibiotic Colistin): 4 | MIC of antibiotic in presence of adjuvant (P. aeruginosa R590 [2]; antibiotic Daptomycin): No potentiation | FICI (P. aeruginosa R590 [2]; antibiotic Fusidic acid): <0.012 | MIC of antibiotic in presence of adjuvant (P. aeruginosa R590 [2]; antibiotic Fusidic acid): <0.25 mg/L | Potentiation factor (P. aeruginosa R590 [2]; antibiotic Fusidic acid): >256 | FICI (P. aeruginosa R590 [2]; antibiotic Linezolid): <0.156 | MIC of antibiotic in presence of adjuvant (P. aeruginosa R590 [2]; antibiotic Linezolid): 32 mg/L | Potentiation factor (P. aeruginosa R590 [2]; antibiotic Linezolid): 8 | FICI (P. aeruginosa R590 [2]; antibiotic Minocycline): <0.156 | MIC of antibiotic in presence of adjuvant (P. aeruginosa R590 [2]; antibiotic Minocycline): 1 mg/L | Potentiation factor (P. aeruginosa R590 [2]; antibiotic Minocycline): 8 | FICI (P. aeruginosa R590 [2]; antibiotic Rifampicin): <0.016 | MIC of antibiotic in presence of adjuvant (P. aeruginosa R590 [2]; antibiotic Rifampicin): <0.125 mg/L | Potentiation factor (P. aeruginosa R590 [2]; antibiotic Rifampicin): >1024 | FICI (P. aeruginosa R590 [2]; antibiotic Tetracycline): <0.1875 | MIC of antibiotic in presence of adjuvant (P. aeruginosa R590 [2]; antibiotic Tetracycline): 16 mg/L | Potentiation factor (P. aeruginosa R590 [2]; antibiotic Tetracycline): 16 | MIC of antibiotic in presence of adjuvant (A. baumannii R674 [3]; antibiotic Ampicillin): No potentiation | FICI (A. baumannii R674 [3]; antibiotic Ciprofloxacin): <0.281 | MIC of antibiotic in presence of adjuvant (A. baumannii R674 [3]; antibiotic Ciprofloxacin): 64 mg/L | Potentiation factor (A. baumannii R674 [3]; antibiotic Ciprofloxacin): 4 | FICI (A. baumannii R674 [3]; antibiotic Erythromycin): <0.0625 | MIC of antibiotic in presence of adjuvant (A. baumannii R674 [3]; antibiotic Erythromycin): 16 mg/L | Potentiation factor (A. baumannii R674 [3]; antibiotic Erythromycin): 32 | FICI (A. baumannii R674 [3]; antibiotic Fusidic acid): <0.012 | MIC of antibiotic in presence of adjuvant (A. baumannii R674 [3]; antibiotic Fusidic acid): <0.5 mg/L | Potentiation factor (A. baumannii R674 [3]; antibiotic Fusidic acid): >128 | FICI (A. baumannii R674 [3]; antibiotic Linezolid): <0.156 | MIC of antibiotic in presence of adjuvant (A. baumannii R674 [3]; antibiotic Linezolid): 32 mg/L | Potentiation factor (A. baumannii R674 [3]; antibiotic Linezolid): 8 | FICI (A. baumannii R674 [3]; antibiotic Minocycline): <0.129 | MIC of antibiotic in presence of adjuvant (A. baumannii R674 [3]; antibiotic Minocycline): 1 mg/L | Potentiation factor (A. baumannii R674 [3]; antibiotic Minocycline): 8 | FICI (A. baumannii R674 [3]; antibiotic Rifampicin): <0.017 | MIC of antibiotic in presence of adjuvant (A. baumannii R674 [3]; antibiotic Rifampicin): <0.125 mg/L | Potentiation factor (A. baumannii R674 [3]; antibiotic Rifampicin): >512 | MIC of antibiotic in presence of adjuvant (A. baumannii R674 [3]; antibiotic Streptomycin): No potentiation | FICI (A. baumannii R674 [3]; antibiotic Tetracycline): <0.25 | MIC of antibiotic in presence of adjuvant (A. baumannii R674 [3]; antibiotic Tetracycline): 16 mg/L | Potentiation factor (A. baumannii R674 [3]; antibiotic Tetracycline): 8 | FICI (A. baumannii R674 [3]; antibiotic Vancomycin): <0.3125 | MIC of antibiotic in presence of adjuvant (A. baumannii R674 [3]; antibiotic Vancomycin): 16 mg/L | Potentiation factor (A. baumannii R674 [3]; antibiotic Vancomycin): 4
